Source: patent US20080220069A1, “Long Acting Injectable Crystal Formulations of Estradiol Metabolites and Methods of Using Same” (PR PHARMACEUTICALS, INC., priority 2004, published 2008)
Values belong to the compound of their own block, whether it stands above or below them.

Columns and labels:
[1] = room temperature
[2] = In vivo pharmacokinetics of 2ME particles ranging from 90 to 180 micrometers (Example 7); conditions: rat, 5 mg/rat subcutaneous, particles 90 to 180 micrometers
Experimental: (§1) A portion of the 2-methoxyestradiol prepared in Example 1 was ground in a mortar and pestle and sieved through stainless steel screens to generate a population of particles ranging from 90 to 180 micrometers. On day 0, each animal in the treatment group (n=6) received 5 mg/rat of 2ME in 0.25 ml injection vehicle consisting of 0.5% w/v sodium carboxymethylcellulose containing 5% w/v mannitol and 0.05% w/v SDS by subcutaneous injection using a 1 cc syringe and a 1 inch, 20-gauge needle. On Day—3 blood was collected from all rats via the tail vein. Rats were bled periodically via the lateral tail vein. Plasma samples were extracted, derivatized, and 2ME concentration was measured using a qualified gas chromatography-mass spectroscopy detection method. Plasma concentrations versus time are plotted in FIG. 3.

[3] = In vivo pharmacokinetics of altered crystal form (hemi hydrate) of 2ME (Example 6); conditions: rat, 5 mg/rat subcutaneous, hemi hydrate crystals approx. 10 μm, by day 28
Experimental: A solution of 2-methoxyestradiol (2ME) (Tetrionics, Madison, Wis.) was made in n-methylpyrrolidone at a 10% w/v concentration. One volume of the 2ME solution was added to 1000 volumes of water stirring rapidly at 23° C. The mixture was allowed to stir prior to the addition of sodium dodecyl sulfate (SDS) to a final concentration of 0.1% w/v. The 2ME was collected by sedimentation and washed twice with 0.1% SDS.
as §1, with “On” for “A portion of the 2-methoxyestradiol prepared in Example 1 was ground in a mortar and pestle and sieved through stainless steel screens to generate a population of particles ranging from 90 to 180 micrometers. On”, “2.” for “3.”

[4] = In vivo pharmacokinetics of 2ME crystal preparation with broad size distribution (Example 2), plasma 2ME by gas chromatography-mass detection; conditions: rat, 5 mg/rat subcutaneous
Experimental: The material generated in Example 1 was ground in a mortar and pestle, sieved through a 180 um screen, and the particle size distribution of the sieved material was measured on a Coulter LS13320 Particle Size analyzer.
On day 0, animals in all treatment groups received 5 mg/rat of 2ME in 0.25 ml injection vehicle consisting of 2.0% w/v sodium carboxymethylcellulose containing 0.01% w/v Tween 80 and 0.1% w/v SDS by subcutaneous injection using a 1 cc syringe and a 1″, 20-gauge needle. On Day—3 blood was collected from all rats via the tail vein. On Days 1, 3, 7, 21, 28, and 35, all rats were bled via the lateral tail vein. Plasma samples were extracted, derivatized, and 2ME concentration was measured using a qualified gas chromatography-mass detection method. The plasma concentration profile of 2ME released from crystals with a broad size distribution is characterized by an initial burst followed by sustained blood levels of approximately 5 ng/ml between days 3 and 28.

[5] = rat, 16 mg subcutaneous in 2.5% w/v sodium carboxymethylcellulose, after 15 days

SMILES: C[C@]12CC[C@@H]3c4cc(O)c(O)cc4CC[C@H]3[C@@H]1CC[C@@H]2O [2-hydroxyestradiol]
- water solubility [1]: approximately 0.155 mg/ml

- 2ME in plasma ([2]; day 51): still measurable
- initial plasma concentrations ([2]; first week): low initial plasma concentrations
- plasma 2ME concentrations [3]: fallen to zero
- sustained blood levels of 2ME ([4]; crystals 48.98±36.95 μm, between days 3 and 28): approximately 5 ng/ml
- 2ME blood levels ([4]; crystals 48.98±36.95 μm, by day 35): fallen to zero
- plasma concentration profile, initial phase ([4]; crystals with a broad size distribution): initial burst
SMILES: COc1cc2c(cc1O)CC[C@@H]1[C@@H]2CC[C@]2(C)[C@@H](O)CC[C@@H]12 [2ME, 2-methoxyestradiol]

SMILES: COc1cc2c(cc1OC(=O)c1ccccc1)CC[C@@H]1[C@@H]2CC[C@]2(C)[C@@H](O)CC[C@@H]12 [3-benzoyl-2-methoxyestradiol]
- water solubility of the esterified compound, fold lower than parent estradiol metabolite ([1]; same conditions as parent): approximately 3 fold
- release of the injected dose (chromatographic analysis of dissected injection site) [5]: 6.2%±1.2
